We go through 19 compounds from US20250382273A1 (INSTITUT NATIONAL DE LA SANTE ET DE LA RECHERCHE MEDICALE, priority 2022, published 2025).

As a reminder, the EC50 is the midpoint of the concentration-response curve.

Some results are limits rather than exact numbers.

One test deals with M. tuberculosis H37Rv_DdnL49P_gfp. Type of test: cell-based, Mycobacterium tuberculosis. Conditions: in combination with pretomanid, unit inferred; read-out: average EC50 H37Rv_DdnL49P_gfp.
Consider `CC(C)(C)C#Cc1ccc2nc(NC(=O)[C@@H]3C4C=CC(C4)[C@@H]3C(=O)O)sc2c1` (some centres unmarked) [Example 78, 3-[[6-(3,3-dimethylbut-1-ynyl)-1,3-benzothiazol-2-yl]carbamoyl]bicyclo [2.2.1]hept-5-ene-2-carboxylic acid], for which the half-maximal effective concentration (EC50) was determined as 220 nM.

The test is the same for the next values; noted with them: read-out: EC50 H37Rv_DdnL49P_gfp.
Take `CC(C)(C)C#Cc1ccc2nc(NC(=O)[C@@H]3C4C=CC(C4)[C@@H]3C(=O)O)sc2c1` (some centres unmarked) [Example 78, 3-[[6-(3,3-dimethylbut-1-ynyl)-1,3-benzothiazol-2-yl]carbamoyl]bicyclo [2.2.1]hept-5-ene-2-carboxylic acid]: the EC50 was < 1000 nM. The same measure, in the same setting: the value for `O=C(Nc1nc2ccc(C#CC3CC3)cc2s1)[C@@H]1C2C=CC(C2)[C@@H]1C(=O)O` (some centres unmarked) [Example 79, 3-[[6-(2-cyclopropylethynyl)-1,3-benzothiazol-2-yl]carbamoyl]bicyclo[2.2.1]hept-5-ene-2-carboxylic acid] was < 1000 nM. On the same count and under the same terms, for `O=C(Nc1nc2ccc(-c3cncnc3)cc2s1)[C@@H]1C2C=CC(C2)[C@@H]1C(=O)O` (some centres unmarked) [Example 80, 3-[(6-pyrimidin-5-yl-1,3-benzothiazol-2-yl)carbamoyl]bicyclo[2.2.1]hept-5-ene-2-carboxylic acid] the value was 10000 to 20000 nM; for `O=C(Nc1nc2ccc(-c3ccc4ncccc4c3)cc2s1)[C@@H]1C2C=CC(C2)[C@@H]1C(=O)O` (some centres unmarked) [Example 81, 3-[[6-(6-quinolyl)-1,3-benzothiazol-2-yl]carbamoyl]bicyclo[2.2.1]hept-5-ene-2-carboxylic acid], 1000 to 5000 nM. On the same count and under the same terms, for `Cc1ccnc(Nc2ccc3nc(NC(=O)[C@@H]4C5C=CC(C5)[C@@H]4C(=O)O)sc3c2)c1` (some centres unmarked) [Example 84, 3-[[6-[(4-methyl-2-pyridyl)amino]-1,3-benzothiazol-2-yl]carbamoyl]bicyclo[2.2.1]hept-5-ene-2-carboxylic acid] the value was 1000 to 5000 nM; for `O=C(Nc1nc2ccc(Nc3cc(F)ccn3)cc2s1)[C@@H]1C2C=CC(C2)[C@@H]1C(=O)O` (some centres unmarked) [Example 85, 3-[[6-[(4-fluoro-2-pyridyl)amino]-1,3-benzothiazol-2-yl]carbamoyl]bicyclo[2.2.1]hept-5-ene-2-carboxylic acid], < 1000 nM; for `O=C(Nc1nc2ccc(Nc3ccc(F)cn3)cc2s1)[C@@H]1C2C=CC(C2)[C@@H]1C(=O)O` (some centres unmarked) [Example 86, 3-[[6-[(5-fluoro-2-pyridyl)amino]-1,3-benzothiazol-2-yl]carbamoyl]bicyclo[2.2.1]hept-5-ene-2-carboxylic acid], < 1000 nM. `O=C1[C@@H]2C3C=CC(C3)[C@@H]2C(=O)N1c1nc2ccc(Nc3ccc(F)cn3)cc2s1` [Example 87, 4-[6-[(5-fluoro-2-pyridyl)amino]-1,3-benzothiazol-2-yl]-4-azatricyclo[5.2.1.02,6]dec-8-ene-3,5-dione]: the EC50 is < 1000 nM. For the compound `O=C(Nc1nc2ccc(Nc3cccc(F)n3)cc2s1)[C@@H]1C2C=CC(C2)[C@@H]1C(=O)O` (some centres unmarked) [Example 88, 3-[[6-[(6-fluoro-2-pyridyl)amino]-1,3-benzothiazol-2-yl]carbamoyl]bicyclo[2.2.1]hept-5-ene-2-carboxylic acid], the 50% effective concentration (EC50) is < 1000 nM.

For the compound `O=C1[C@@H]2C3C=CC(C3)[C@@H]2C(=O)N1c1nc2ccc(Nc3cccc(F)n3)cc2s1` [Example 89, 4-[6-[(6-fluoro-2-pyridyl)amino]-1,3-benzothiazol-2-yl]-4-azatricyclo[5.2.1.02,6]dec-8-ene-3,5-dione], the EC50 lay within 1000 to 5000 nM. Still for that read-out and setting: for `O=C1[C@@H]2C3C=CC(C3)[C@@H]2C(=O)N1c1nc2ccc(Nc3ccnc(C(F)(F)F)c3)cc2s1` [Example 90, 4-[6-[[2-(trifluoromethyl)-4-pyridyl]amino]-1,3-benzothiazol-2-yl]-4-azatricyclo[5.2.1.02,6]dec-8-ene-3,5-dione] the value was < 1000 nM; for `O=C(Nc1nc2ccc(Nc3cncc(C(F)(F)F)c3)cc2s1)[C@@H]1C2C=CC(C2)[C@@H]1C(=O)O` (some centres unmarked) [Example 91, 3-[[6-[[5-(trifluoromethyl)-3-pyridyl]amino]-1,3-benzothiazol-2-yl]carbamoyl]bicyclo[2.2.1]hept-5-ene-2-carboxylic acid], 5000 to 10000 nM.

Take `COc1cc(Nc2ccc3nc(N4C(=O)[C@@H]5C6C=CC(C6)[C@@H]5C4=O)sc3c2)ccn1` [Example 92, 4-[6-[(2-methoxy-4-pyridyl)amino]-1,3-benzothiazol-2-yl]-4-azatricyclo[5.2.1.02,6]dec-8-ene-3,5-dione]: the EC50 lay in the range of 1000 to 5000 nM. Still for that read-out and setting: for `O=C(Nc1nc2ccc(Nc3ccc(OC(F)(F)F)cn3)cc2s1)[C@@H]1C2C=CC(C2)[C@@H]1C(=O)O` (some centres unmarked) [Example 93, 3-[[6-[[5-(trifluoromethoxy)-2-pyridyl]amino]-1,3-benzothiazol-2-yl]carbamoyl]bicyclo[2.2.1]hept-5-ene-2-carboxylic acid] the value was < 1000 nM. With `O=C1[C@@H]2C3C=CC(C3)[C@@H]2C(=O)N1c1nc2ccc(Nc3ccc(C(F)(F)F)cn3)cc2s1` [Example 95], the EC50 was < 1000 nM. Regarding `O=C(Nc1nc2ccc(Nc3ccc(C(F)(F)F)cn3)cc2s1)[C@@H]1C2C=CC(C2)[C@@H]1C(=O)O` (some centres unmarked) [Example 96, 3-[[6-[[5-(trifluoromethyl)-2-pyridyl]amino]-1,3-benzothiazol-2-yl]carbamoyl]bicyclo[2.2.1]hept-5-ene-2-carboxylic acid], the EC50 was < 1000 nM. For the compound `O=C1[C@@H]2C3C=CC(C3)[C@@H]2C(=O)N1c1nc2ccc(Nc3cccc(C(F)(F)F)n3)cc2s1` [Example 97, 4-[6-[[6-(trifluoromethyl)-2-pyridyl]amino]-1,3-benzothiazol-2-yl]-4-azatricyclo[5.2.1.02,6]dec-8-ene-3,5-dione], the EC50 was < 1000 nM. `O=C(Nc1nc2ccc(Nc3ccnc(F)c3)cc2s1)[C@@H]1C2C=CC(C2)[C@@H]1C(=O)O` (some centres unmarked) [Example 99, 3-[[6-[(2-fluoro-4-pyridyl)amino]-1,3-benzothiazol-2-yl]carbamoyl]bicyclo[2.2.1]hept-5-ene-2-carboxylic acid]: the EC50 was 1000 to 5000 nM. The same measure, in the same setting: for `O=C(Nc1nc2ccc(-c3ccc(N4CCCCC4)cc3)cc2s1)[C@@H]1C2C=CC(C2)[C@@H]1C(=O)O` (some centres unmarked) [Example 100] the value was < 1000 nM.
